Test results from US11021493B2, “1,4-thiazine dioxide and 1,2,4-thiadiazine dioxide derivatives as beta-secretase inhibitors and methods of use” (AMGEN INC., priority 2016, dated 2021).
Blank lines part the entries; values can stand above or below the compound they belong to.

Key:
[1] = target: T1, BACE1 (Homo sapiens (Human), UniProt P56817); test: In vitro enzymatic BACE1 FRET assay; assay type: biochemical; settings: read-out: BACE1 Enzyme IC50
Target sequence in this assay (P56817 46-501): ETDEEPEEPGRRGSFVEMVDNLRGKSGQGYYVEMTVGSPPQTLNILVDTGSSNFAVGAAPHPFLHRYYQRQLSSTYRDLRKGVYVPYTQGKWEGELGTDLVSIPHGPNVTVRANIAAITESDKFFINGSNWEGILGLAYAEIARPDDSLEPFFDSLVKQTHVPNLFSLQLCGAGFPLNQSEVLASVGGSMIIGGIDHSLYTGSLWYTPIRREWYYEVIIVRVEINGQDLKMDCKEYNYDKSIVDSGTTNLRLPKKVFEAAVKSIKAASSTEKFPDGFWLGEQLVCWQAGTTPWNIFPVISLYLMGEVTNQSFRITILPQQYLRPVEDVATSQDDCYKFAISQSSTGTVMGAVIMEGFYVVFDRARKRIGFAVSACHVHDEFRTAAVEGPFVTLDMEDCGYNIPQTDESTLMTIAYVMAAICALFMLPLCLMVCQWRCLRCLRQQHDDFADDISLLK

[2] = target: T1, BACE1; test: In vitro BACE1 cell-based assay (Aβ40 in conditioned medium of cells stably expressing APP, HTRF); settings: Aβ40 in conditioned media after 24 h incubation
Target sequence in this assay (P56817 46-501, species assumed): as the sequence (P56817 46-501) above

[3] = target: human recombinant BACE2 (Homo sapiens (Human), UniProt Q9Y5Z0); test: In vitro enzymatic BACE2 FRET assay; assay type: biochemical; settings: read-out: BACE2 Enzyme IC50
Sequence of human recombinant BACE2 (Q9Y5Z0 63-518): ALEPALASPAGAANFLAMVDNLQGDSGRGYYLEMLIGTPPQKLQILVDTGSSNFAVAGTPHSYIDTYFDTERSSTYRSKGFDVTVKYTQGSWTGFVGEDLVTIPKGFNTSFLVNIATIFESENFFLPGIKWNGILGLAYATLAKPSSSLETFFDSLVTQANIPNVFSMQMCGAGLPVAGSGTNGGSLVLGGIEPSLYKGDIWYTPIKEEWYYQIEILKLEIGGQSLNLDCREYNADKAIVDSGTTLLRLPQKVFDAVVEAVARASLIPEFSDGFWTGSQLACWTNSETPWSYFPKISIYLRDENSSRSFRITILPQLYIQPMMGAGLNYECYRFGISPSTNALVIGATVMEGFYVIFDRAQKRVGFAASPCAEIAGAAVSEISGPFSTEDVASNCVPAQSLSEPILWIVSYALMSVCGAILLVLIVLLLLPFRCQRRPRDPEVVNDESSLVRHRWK

[4] = target: Cathepsin D (CatD) (Homo sapiens (Human), UniProt P07339); test: In vitro enzymatic Cathepsin D (CatD) FRET assay; assay type: biochemical; settings: read-out: Cat D Enzyme IC50
Sequence of Cathepsin D (CatD) (P07339 65-412, species assumed): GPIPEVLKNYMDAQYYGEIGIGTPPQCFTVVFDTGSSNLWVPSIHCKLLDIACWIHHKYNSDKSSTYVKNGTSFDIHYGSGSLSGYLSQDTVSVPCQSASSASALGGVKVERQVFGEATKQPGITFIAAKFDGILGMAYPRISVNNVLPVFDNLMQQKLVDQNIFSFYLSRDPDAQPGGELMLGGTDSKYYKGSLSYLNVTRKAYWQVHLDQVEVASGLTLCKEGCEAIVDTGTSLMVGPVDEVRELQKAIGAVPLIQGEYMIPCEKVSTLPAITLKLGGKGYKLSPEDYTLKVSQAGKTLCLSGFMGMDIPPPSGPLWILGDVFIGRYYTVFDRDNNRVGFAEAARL

Structure (SMILES): CN1C(N)=N[C@](C)(c2cc(/C=C(\F)c3ccc(F)cn3)ccc2F)CS1(=O)=O [Example 240, (5R)-5-(2-fluoro-5-((Z)-2-fluoro-2-(5-fluoro-2-pyridinyl)ethenyl)phenyl)-2,5-dimethyl-5,6-dihydro-2H-1,2,4-thiadiazin-3-amine 1,1-dioxide]
IC50 [1]: 34 nM
IC50 [2]: 67 nM
IC50 [3]: 8 nM
IC50 [4]: 375000 nM

Structure (SMILES): CN1C(N)=N[C@](C)(c2cc(/C=C(\F)c3cnc(Cl)cn3)ccc2F)C2(CC2)S1(=O)=O [Example 139, (8R)-8-(5-((Z)-2-(5-chloro-2-pyrazinyl)-2-fluoroethenyl)-2-fluorophenyl)-5,8-dimethyl-4-thia-5,7-diazaspiro[2.5]oct-6-en-6-amine 4,4-dioxide]
IC50 [1]: 49 nM
IC50 [2]: 198 nM
IC50 [3]: 70 nM
IC50 [4]: 428000 nM

Structure (SMILES): C[C@@]1(c2cc(/C=C(\F)c3ccc(Cl)cn3)ccc2F)CS(=O)(=O)C2(CCC2)C(N)=N1 [Example 100, (R,Z)-9-amino-7-(5-(2-(5-chloropyridin-2-yl)-2-fluorovinyl)-2-fluorophenyl)-7-methyl-5-thia-8-azaspiro[3.5]non-8-ene 5,5-dioxide]
IC50 [1]: 10 nM
IC50 [2]: 472 nM
IC50 [3]: 7 nM
IC50 [4]: 91000 nM

Structure (SMILES): CN1C(N)=N[C@](C)(c2cc(/C=C(\F)c3ccc(C#N)s3)ccc2F)CS1(=O)=O [Example 256, 5-((Z)-2-(3-((5R)-3-amino-2,5-dimethyl-1,1-dioxido-5,6-dihydro-2H-1,2,4-thiadiazin-5-yl)-4-fluorophenyl)-1-fluoroethenyl)-2-thiophenecarbonitrile]
IC50 [1]: 35 nM
IC50 [2]: 99 nM
IC50 [3]: 14 nM
IC50 [4]: 15400 nM

Structure (SMILES): CN1C(N)=N[C@](C)(c2cc(/C=C(\F)c3ncc(C#N)cc3Cl)ccc2F)CS1(=O)=O [Example 269, (R,Z)-6-(2-(3-(3-amino-2,5-dimethyl-1,1-dioxido-5,6-dihydro-2H-1,2,4-thiadiazin-5-yl)-4-fluorophenyl)-1-fluorovinyl)-5-chloronicotinonitrile]
IC50 [1]: 2 nM
IC50 [2]: 4 nM
IC50 [3]: 3 nM
IC50 [4]: 119000 nM

Structure (SMILES): CC1(C)C(N)=N[C@](C)(c2cc(/C=C/c3ccc(Cl)cc3)ccc2F)CS1(=O)=O [Example 279, (R,E)-5-amino-3-(5-(4-chlorostyryl)-2-fluorophenyl)-3,6,6-trimethyl-3,6-dihydro-2H-1,4-thiazine 1,1-dioxide]
IC50 [1]: 56 nM
IC50 [2]: 442 nM
IC50 [3]: 56 nM
IC50 [4]: 39300 nM

Structure (SMILES): CC1(C)C(N)=N[C@](C)(c2cc(/C=C(\F)c3cc4c(cn3)OCCO4)ccc2F)[C@@H](F)S1(=O)=O (single isomer, unassigned) [Example 213]
IC50 [1]: 626 nM
IC50 [2]: 3580 nM
IC50 [3]: 683 nM
IC50 [4]: 172000 nM

Structure (SMILES): CN1C(N)=N[C@](C)(c2cc(/C=C(\F)c3ccc(C#CC4CC4)cn3)ccc2F)CS1(=O)=O [Example 251, (R,Z)-3-amino-5-(5-(2-(5-(cyclopropylethynyl)pyridin-2-yl)-2-fluorovinyl)-2-fluorophenyl)-2,5-dimethyl-5,6-dihydro-2H-1,2,4-thiadiazine 1,1-dioxide]
IC50 [1]: 7 nM
IC50 [2]: 110 nM
IC50 [3]: 36 nM
IC50 [4]: 33800 nM

Structure (SMILES): CN1C(N)=N[C@](C)(c2cc(/C=C(\F)c3ccc(OC(F)(F)F)cn3)ccc2F)CS1(=O)=O [Example 258, (R,Z)-3-amino-5-(2-fluoro-5-(2-fluoro-2-(5-(trifluoromethoxy)pyridin-2-yl)vinyl)phenyl)-2,5-dimethyl-5,6-dihydro-2H-1,2,4-thiadiazine 1,1-dioxide]
IC50 [1]: 6 nM
IC50 [2]: 33 nM
IC50 [3]: 40 nM
IC50 [4]: 54400 nM

Structure (SMILES): C[C@]1(c2cc(/C=C(\F)c3cnc(OCC4CCC4)cn3)ccc2F)N=C(N)[C@@]2(CF)CC[C@@H]1S2(=O)=O [Example 132, (1R,4R,5S)-2-amino-4-(5-((Z)-2-(5-(cyclobutylmethoxy)pyrazin-2-yl)-2-fluorovinyl)-2-fluorophenyl)-1-(fluoromethyl)-4-methyl-8-thia-3-azabicyclo[3.2.1]oct-2-ene 8,8-dioxide]
IC50 [1]: 38 nM
IC50 [2]: 1960 nM
IC50 [3]: 217 nM
IC50 [4]: > 400000 nM

Structure (SMILES): CN1C(N)=N[C@](C)(c2cc(/C=C(\F)c3cc4c(cn3)OCCO4)ccc2F)CS1(=O)=O [Example 187, (R,Z)-3-amino-5-(5-(2-(2,3-dihydro-[1,4]dioxino[2,3-c]pyridin-7-yl)-2-fluorovinyl)-2-fluorophenyl)-2,5-dimethyl-5,6-dihydro-2H-1,2,4-thiadiazine 1,1-dioxide]
IC50 [1]: 172 nM
IC50 [2]: 108 nM
IC50 [3]: 78 nM
IC50 [4]: 165000 nM

Structure (SMILES): CN1C(N)=N[C@](C)(c2cc(/C=C(\F)c3cnc(C#N)cn3)ccc2F)C2(CC2)S1(=O)=O [Example 147, (R,Z)-5-(2-(3-(6-amino-5,8-dimethyl-4,4-dioxido-4-thia-5,7-diazaspiro[2.5]oct-6-en-8-yl)-4-fluorophenyl)-1-fluorovinyl)pyrazine-2-carbonitrile]
IC50 [1]: 6 nM
IC50 [2]: 15 nM
IC50 [3]: 184 nM
IC50 [4]: 41100 nM

Structure (SMILES): C[C@@H]1COc2nc(/C(F)=C/c3ccc(F)c([C@]4(C)CS(=O)(=O)N(C)C(N)=N4)c3)ncc2O1 [Example 235, (R)-3-amino-5-(2-fluoro-5-((Z)-2-fluoro-2-((R)-6-methyl-6,7-dihydro-[1,4]dioxino[2,3-d]pyrimidin-2-yl)vinyl)phenyl)-2,5-dimethyl-5,6-dihydro-2H-1,2,4-thiadiazine 1,1-dioxide]
IC50 [1]: 268 nM
IC50 [2]: 128 nM
IC50 [3]: 533 nM
IC50 [4]: 160000 nM

Structure (SMILES): CN1C(N)=N[C@](C)(c2cc(/C=C(\F)c3cc4c(cn3)OCCC4)ccc2F)CS1(=O)=O [Example 239, (5R)-5-(5-((Z)-2-(3,4-dihydro-2H-pyrano[2,3-c]pyridin-6-yl)-2-fluoroethenyl)-2-fluorophenyl)-2,5-dimethyl-5,6-dihydro-2H-1,2,4-thiadiazin-3-amine 1,1-dioxide]
IC50 [1]: 530 nM
IC50 [2]: 1020 nM
IC50 [3]: 143 nM
IC50 [4]: 329000 nM

Further lines, results first:

IC50 [1]: 58 nM
IC50 [2]: 518 nM
IC50 [3]: 107 nM
IC50 [4]: 27500 nM
Structure (SMILES): CC1(C)C(N)=N[C@](C)(c2cc(/C=C(\F)c3cnc(OCC4CCC4)cn3)ccc2F)CS1(=O)=O [Example 145, (R,Z)-5-amino-3-(5-(2-(5-(cyclobutylmethoxy)pyrazin-2-yl)-2-fluorovinyl)-2-fluorophenyl)-3,6,6-trimethyl-3,6-dihydro-2H-1,4-thiazine 1,1-dioxide]

IC50 [1]: 60 nM
IC50 [2]: 2220 nM
IC50 [3]: 59 nM
IC50 [4]: 61800 nM
Structure (SMILES): CC1(C)C(N)=N[C@](CF)(c2cc(/C=C(\F)c3cnc(Cl)cn3)ccc2F)CS1(=O)=O [Example 189, (S,Z)-5-amino-3-(5-(2-(5-chloropyrazin-2-yl)-2-fluorovinyl)-2-fluorophenyl)-3-(fluoromethyl)-6,6-dimethyl-3,6-dihydro-2H-1,4-thiazine 1,1-dioxide]

IC50 [1]: 30 nM
IC50 [2]: 1070 nM
IC50 [3]: 143 nM
IC50 [4]: 17000 nM
Structure (SMILES): CC1(C)C(N)=N[C@](C)(c2cc(/C=C(\F)c3cnc(OCC4CCCC4)cn3)ccc2F)CS1(=O)=O [Example 144, (R,Z)-5-amino-3-(5-(2-(5-(cyclopentylmethoxy)pyrazin-2-yl)-2-fluorovinyl)-2-fluorophenyl)-3,6,6-trimethyl-3,6-dihydro-2H-1,4-thiazine 1,1-dioxide]

IC50 [1]: 189 nM
IC50 [2]: 133 nM
IC50 [3]: 190 nM
IC50 [4]: 237000 nM
Structure (SMILES): COc1cnc(/C(F)=C/c2ccc(F)c([C@]3(C)CS(=O)(=O)C(C)(C)C(N)=N3)c2)cn1 [Example 263, (R,Z)-5-amino-3-(2-fluoro-5-(2-fluoro-2-(5-methoxypyrazin-2-yl)vinyl)phenyl)-3,6,6-trimethyl-3,6-dihydro-2H-1,4-thiazine 1,1-dioxide]

IC50 [1]: 33 nM
IC50 [2]: 52 nM
IC50 [3]: 87 nM
IC50 [4]: 81300 nM
Structure (SMILES): CC1(C)C(N)=N[C@](C)(c2cc(/C=C(\F)c3ccc(C#N)cn3)cnc2F)CS1(=O)=O [Example 197, (R,Z)-6-(2-(5-(5-amino-3,6,6-trimethyl-1,1-dioxido-3,6-dihydro-2H-1,4-thiazin-3-yl)-6-fluoropyridin-3-yl)-1-fluorovinyl)nicotinonitrile]

IC50 [1]: 1 nM
IC50 [2]: 2 nM
IC50 [3]: 34 nM
IC50 [4]: 109000 nM
Structure (SMILES): CC#CCOc1cnc(/C(F)=C/c2ccc(F)c([C@]3(C)CS(=O)(=O)C(C)(C)C(N)=N3)c2)cn1 [Example 154, (R,Z)-5-amino-3-(5-(2-(5-(but-2-yn-1-yloxy)pyrazin-2-yl)-2-fluorovinyl)-2-fluorophenyl)-3,6,6-trimethyl-3,6-dihydro-2H-1,4-thiazine 1,1-dioxide]

IC50 [1]: 636 nM
IC50 [2]: 2180 nM
IC50 [3]: 1060 nM
IC50 [4]: 249000 nM
Structure (SMILES): CC(C)(C#N)COc1cnc(/C(F)=C/c2ccc(F)c([C@]3(C)CS(=O)(=O)C(C)(C)C(N)=N3)c2)cn1 [Example 153, (R,Z)-3-((5-(2-(3-(5-amino-3,6,6-trimethyl-1,1-dioxido-3,6-dihydro-2H-1,4-thiazin-3-yl)-4-fluorophenyl)-1-fluorovinyl)pyrazin-2-yl)oxy)-2,2-dimethylpropanenitrile]

IC50 [1]: 2 nM
IC50 [2]: 5 nM
IC50 [3]: 159 nM
IC50 [4]: 259000 nM
Structure (SMILES): CC#CCOc1cnc(/C(F)=C/c2ccc(F)c([C@@]3(C)N=C(N)N(C)S(=O)(=O)C3(C)C)c2)cn1 [Example 185, (R,Z)-3-amino-5-(5-(2-(5-(but-2-yn-1-yloxy)pyrazin-2-yl)-2-fluorovinyl)-2-fluorophenyl)-2,5,6,6-tetramethyl-5,6-dihydro-2H-1,2,4-thiadiazine 1,1-dioxide]
